According to patent US12291518B2, “Thyroid hormone receptor agonists and use thereof” (Eccogene Inc., priority 2020, dated 2025):
pEC50: −log10 of the molar value.

Assays:
[1] = target: T1, THR alpha-LBD (Homo sapiens, UniProt P10827); assay: THR-α Coactivator Peptide Recruitment Assay (LanthaScreen TR-FRET); assay type: biochemical; details: TR-FRET coactivator recruitment, THR alpha-LBD 0.25 nM; for pEC50: read-out: THRα EC50
T1 construct: except that THR alpha-LBD of a final concentration 0.25 nM was used; purchased Invitrogen PV4687
Outline: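 TR-FRET coactivator recruitment with THR alpha-LBD at 0.25 nM final, Fluorescein-SRC2-2 peptide 0.1 nM and Tb-labeled anti-GST antibody 2 nM; 2 h incubation at room temperature. 520/495 nm emission ratio fitted to a four-parameter sigmoidal curve to give EC50.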

[2] = target: T2, THR beta-LBD (Homo sapiens, UniProt P10828); assay: THR-β Coactivator Peptide Recruitment Assay (LanthaScreen TR-FRET); assay type: biochemical; details: TR-FRET coactivator recruitment, THR beta-LBD 0.5 nM; for pEC50: read-out: THRβ EC50
T2 construct: THR beta-LBD (the final concentration is 0.5 nM) was added to the 384-well assay plate; purchased Invitrogen PV4686
T2 sequence (P10828 217-461 limits assumed): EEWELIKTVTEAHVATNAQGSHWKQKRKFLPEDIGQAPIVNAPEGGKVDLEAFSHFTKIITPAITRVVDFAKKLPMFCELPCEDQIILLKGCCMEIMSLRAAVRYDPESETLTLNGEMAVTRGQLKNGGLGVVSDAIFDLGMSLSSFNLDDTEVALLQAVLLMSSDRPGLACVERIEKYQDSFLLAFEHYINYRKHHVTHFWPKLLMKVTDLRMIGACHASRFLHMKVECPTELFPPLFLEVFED
Outline: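 Agonist-driven coactivator recruitment read as a 520/495 nm TR-FRET emission ratio after 2 h at room temperature. Final concentrations: THR beta-LBD 0.5 nM, fluorescein-SRC2-2 peptide 0.1 nM, terbium anti-GST antibody 2 nM. EC50 from four-parameter dose-response fitting.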

T1 sequence (P10827 163-410 isoform P10827-2 limits assumed, other chains not shown): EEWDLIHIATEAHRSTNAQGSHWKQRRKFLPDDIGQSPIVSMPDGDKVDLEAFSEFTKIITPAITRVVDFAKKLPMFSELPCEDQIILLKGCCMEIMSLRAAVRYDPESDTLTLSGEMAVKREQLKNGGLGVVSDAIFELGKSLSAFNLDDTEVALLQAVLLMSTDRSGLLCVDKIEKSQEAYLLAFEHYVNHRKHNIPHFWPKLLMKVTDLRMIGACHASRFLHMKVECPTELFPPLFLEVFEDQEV

Row | Structure (SMILES) | THRα Emax [1] | pEC50 [1] | THRβ Emax [2] | pEC50 [2]
1 | O=C(N1CCCC1)C1(NS(=O)(=O)c2cc(Oc3c(Cl)cc(-n4nc(C(F)F)c(=O)[nH]c4=O)cc3Cl)ccc2O)CC1 [Compound 91, 5-(2,6-dichloro-4-(6-(difluoromethyl)-3,5-dioxo-4,5-dihydro-1,2,4-triazin-2(3H)-yl)phenoxy)-2-hydroxy-N-(1-(pyrrolidine-1-carbonyl)cyclopropyl)benzenesulfonamide] | B (40~85) | 6.00 to 6.70 | A (90~110) | 7.70 to 8.70
2 | O=C(NC1CC1)C1(NS(=O)(=O)c2cc(Oc3c(Cl)cc(-n4nc(C(F)F)c(=O)[nH]c4=O)cc3Cl)ccc2O)CCC1 [Compound 92, N-cyclopropyl-1-((5-(2,6-dichloro-4-(6-(difluoromethyl)-3,5-dioxo-4,5-dihydro-1,2,4-triazin-2(3H)-yl)phenoxy)-2-hydroxyphenyl)sulfonamido)cyclobutane-1-carboxamide] | B (40~85) | 6.00 to 6.70 | B (75~90) | 7.70 to 8.70
3 | O=C(NC1CC1)C1(NS(=O)(=O)c2cc(Oc3c(Cl)cc(-n4nc(C(F)(F)F)c(=O)[nH]c4=O)cc3Cl)ccc2O)CC1 [Compound 93, N-cyclopropyl-1-((5-(2,6-dichloro-4-(3,5-dioxo-6-(trifluoromethyl)-4,5-dihydro-1,2,4-triazin-2(3H)-yl)phenoxy)-2-hydroxyphenyl)sulfonamido)cyclopropane-1-carboxamide] | C (<40) | < 6.00 | B (75~90) | 7.00 to 7.70
4 | CS(=O)(=O)CC1(NS(=O)(=O)c2cc(Oc3c(Cl)cc(-n4nc(C(F)F)c(=O)[nH]c4=O)cc3Cl)ccc2O)CC1 [Compound 94, 5-[2,6-dichloro-4-[6-(difluoromethyl)-3,5-dioxo-1,2,4-triazin-2-yl]phenoxy]-2-hydroxy-N-[1-(methylsulfonylmethyl)cyclopropyl] benzene sulfonamide] | B (40~85) | 6.00 to 6.70 | B (75~90) | 7.70 to 8.70
5 | CS(=O)(=O)c1cc(Oc2c(Cl)cc(-n3nc(C(F)F)c(=O)[nH]c3=O)cc2Cl)ccc1O [Compound 95] | A (85~110) | > 8.70 | A (90~110) | > 8.70
6 | O=c1[nH]c(=O)n(-c2cc(Cl)c(Oc3ccc(O)c(S(=O)(=O)NC4C[S+]([O-])C4)c3)c(Cl)c2)nc1C(F)F (centres unmarked) [Compound 96, 5-[2,6-dichloro-4-[6-(difluoromethyl)-3,5-dioxo-1,2,4-triazin-2-yl]phenoxy]-2-hydroxy-N-(1-oxothietan-3-yl) benzenesulfonamide] | A (85~110) | 6.00 to 6.70 | A (90~110) | 7.00 to 7.70
7 | O=c1[nH]c(=O)n(-c2cc(Cl)c(Cc3ccc(O)c(S(=O)(=O)N[C@H]4C[C@H](O)C4)c3)c(Cl)c2)nc1C(F)F [Compound 97, 5-[[2,6-dichloro-4-[6-(difluoromethyl)-3,5-dioxo-1,2,4-triazin-2-yl]phenyl]methyl]-2-hydroxy-N-(3-hydroxycyclobutyl)benzenesulfonamide] | A (85~110) | 6.70 to 8.70 | A (90~110) | > 8.70
8 | O=C(N[C@H]1CCOC1)c1cc(Oc2c(Cl)cc(-n3nc(C(F)F)c(=O)[nH]c3=O)cc2Cl)ccc1O [Compound 98, (S)-5-(2,6-dichloro-4-(6-(difluoromethyl)-3,5-dioxo-4,5-dihydro-1,2,4-triazin-2 (3H)-yl)phenoxy)-2-hydroxy-N-(tetrahydrofuran-3-yl) benzamide] | B (40~85) | 6.70 to 8.70 | B (75~90) | 7.70 to 8.70
9 | CN([C@H]1C[C@H](O)C1)S(=O)(=O)c1cc(Oc2c(Cl)cc(-n3nc(C(F)F)c(=O)[nH]c3=O)cc2Cl)ccc1O [Compound 99] | A (85~110) | 6.70 to 8.70 | B (75~90) | 7.70 to 8.70
10 | O=c1[nH]c(=O)n(-c2cc(Cl)c(Oc3ccc(O)c(S(=O)(=O)[C@H]4C[C@@H](O)C4)c3)c(Cl)c2)nc1C(F)F [Compound 100, 2-(3,5-dichloro-4-(4-hydroxy-3-(((1s,3s)-3-hydroxycyclobutyl)sulfonyl)phenoxy)phenyl)-6-(difluoromethyl)-1,2,4-triazine-3,5(2H,4H)-dione] | A (85~110) | 6.70 to 8.70 | A (90~110) | > 8.70
11 | O=C(NCC1(NS(=O)(=O)c2cc(Oc3c(Cl)cc(-n4nc(C(F)F)c(=O)[nH]c4=O)cc3Cl)ncc2O)CC1)C1CC1 [Compound 101] | B (40~85) | 6.00 to 6.70 | B (75~90) | 7.70 to 8.70
12 | CNS(=O)(=O)c1cc(Oc2c(Cl)cc(-n3nc(C#N)c(=O)[nH]c3=O)cc2Cl)ncc1O [Compound 102, 2-(2,6-dichloro-4-(6-cyano-3,5-dioxo-4,5-dihydro-1,2,4-triazin-2(3H)-yl)phenoxy)-5-hydroxy-N-methylpyridine-4-sulfonamide] | A (85~110) | 6.00 to 6.70 | B (75~90) | 7.70 to 8.70
13 | COCC1(NS(=O)(=O)c2cc(Oc3c(Cl)cc(-n4nc(C(F)F)c(=O)[nH]c4=O)cc3Cl)ncc2O)CC1 [Compound 103, 2-(2,6-dichloro-4-(6-(difluoromethyl)-3,5-dioxo-4,5-dihydro-1,2,4-triazin-2(3H)-yl)phenoxy)-5-hydroxy-N-(1-(methoxymethyl)cyclopropyl)pyridine-4-sulfonamide] | B (40~85) | < 6.00 | C (<75) | 7.70 to 8.70
14 | O=c1[nH]c(=O)n(-c2cc(Cl)c(Oc3cc(S(=O)(=O)N[C@H]4CCOC4)c(O)cn3)c(Cl)c2)nc1C(F)F [Compound 104, (S)-2-(2,6-dichloro-4-(6-(difluoromethyl)-3,5-dioxo-4,5-dihydro-1,2,4-triazin-2(3H)-yl)phenoxy)-5-hydroxy-N-(tetrahydrofuran-3-yl)pyridine-4-sulfonamide] | B (40~85) | 6.70 to 8.70 | B (75~90) | > 8.70
15 | O=c1[nH]c(=O)n(-c2cc(Cl)c(Oc3cc(S(=O)(=O)NC4CC(F)(F)C4)c(O)cn3)c(Cl)c2)nc1C(F)F [Compound 105, 2-(2,6-dichloro-4-(6-(difluoromethyl)-3,5-dioxo-4,5-dihydro-1,2,4-triazin-2(3H)-yl)phenoxy)-N-(3,3-difluorocyclobutyl)-5-hydroxypyridine-4-sulfonamide] | A (85~110) | 6.70 to 8.70 | B (75~90) | > 8.70
16 | O=c1[nH]c(=O)n(-c2cc(Cl)c(Oc3cc(S(=O)(=O)N[C@@H]4CCOC4)c(O)cn3)c(Cl)c2)nc1C(F)F [Compound 106, (R)-2-(2,6-dichloro-4-(6-(difluoromethyl)-3,5-dioxo-4,5-dihydro-1,2,4-triazin-2(3H)-yl)phenoxy)-5-hydroxy-N-(tetrahydrofuran-3-yl)pyridine-4-sulfonamide] | A (85~110) | 6.70 to 8.70 | B (75~90) | 7.70 to 8.70
17 | O=c1[nH]c(=O)n(-c2cc(Cl)c(Oc3cc(S(=O)(=O)N4CC(O)C4)c(O)cn3)c(Cl)c2)nc1C(F)F [Compound 107, 2-(3,5-dichloro-4-((5-hydroxy-4-((3-hydroxyazetidin-1-yl)sulfonyl)pyridin-2-yl)oxy)phenyl)-6-(difluoromethyl)-1,2,4-triazine-3,5(2H,4H)-dione] | B (40~85) | 6.70 to 8.70 | B (75~90) | 7.70 to 8.70
18 | O=c1[nH]c(=O)n(-c2cc(Cl)c(Oc3cc(S(=O)(=O)N4CC[C@H](O)C4)c(O)cn3)c(Cl)c2)nc1C(F)F [Compound 108, (S)-2-(3,5-dichloro-4-((5-hydroxy-4-((3-hydroxypyrrolidin-1-yl)sulfonyl)pyridin-2-yl)oxy)phenyl)-6-(difluoromethyl)-1,2,4-triazine-3,5(2H,4H)-dione] | B (40~85) | 6.70 to 8.70 | B (75~90) | 7.70 to 8.70
19 | O=c1[nH]c(=O)n(-c2cc(Cl)c(Oc3cc(S(=O)(=O)N4CC(F)(F)C4)c(O)cn3)c(Cl)c2)nc1C(F)F [Compound 109, 2-(3,5-dichloro-4-((4-((3,3-difluoroazetidin-1-yl)sulfonyl)-5-hydroxypyridin-2-yl)oxy)phenyl)-6-(difluoromethyl)-1,2,4-triazine-3,5(2H,4H)-dione] | A (85~110) | 6.70 to 8.70 | B (75~90) | > 8.70
20 | CC(C)NS(=O)(=O)c1cc(Oc2c(Cl)cc(-n3nc(C(F)F)c(=O)[nH]c3=O)cc2Cl)ncc1O [Compound 110, 2-(2,6-dichloro-4-(6-(difluoromethyl)-3,5-dioxo-4,5-dihydro-1,2,4-triazin-2(3H)-yl)phenoxy)-5-hydroxy-N-isopropylpyridine-4-sulfonamide] | A (85~110) | 6.70 to 8.70 | A (90~110) | > 8.70
